Measurements as given in patent publication US11299472B2, “Fumarate salt of (R)-3-(1-(2,3-dichloro-4-(pyrazin-2-yl)phenyl)-2,2,2- trifluoroethyl)-1-methyl-1-(1-methylpiperidin-4-yl) urea, methods of preparation, and uses thereof” (Helsinn Healthcare SA, priority 2017, dated 2022).
Values belong to the compound of their own block, whether it stands above or below them.

Experiments:
human GHSR1a receptor [1] = target: T1, human GHSR1a receptor (Homo sapiens, UniProt Q92847); test: Inositol 1 phosphate (IP-1) inverse agonist assay; assay type: cell-based; conditions: IP-1 assay
T1 construct: expressed in transfected cells; host or cells: HEK293
Description: (§1) The compounds were diluted with 100% DMSO to make 30 mM stock. On the test day, serial dilutions were prepared starting from the stock solution. For the FLIPR assay: 1) 8 μl of DMSO was added to 2 μl of compound stock solution (30 mM) to produce 10 μl of 6 mM solution; half-fold serial dilutions of the 6 mM solution were produced to generate ten doses; 2) test solutions were obtained by diluting the stock solutions 1/40 in assay buffer (DMSO concentration 2.5%). For the IP-1 assay: 1) 29 μl of DMSO was added to 1 μl of compound stock solution (30 mM) to produce 30 μl of 1 mM solution; half-fold serial dilutions of the 1 mM solution were produced to generate 10 doses; 2) test solutions were obtained by diluting the stock solutions 1/100 in assay buffer (DMSO final concentration 1%).
For the inverse agonist activity study, the same procedure described above was followed up to the day of the test. On the test day, the medium was removed by centrifuging at 700 rpm for 30 seconds and 20 μl/well of assay buffer containing the HM04 or R011 was added. The assay plates were incubated at 37° C. in the dark for 1 hour. IP1-d2 (5 μl) and AB-Cryp (5 μl) were sequentially added to all wells using multidrop Combi. The plate was incubated at room temperature for 1 hour and read on EnVision at 620 nm and 665 nm.

human GHSR1a receptor [2] = target: T1, human GHSR1a receptor; test: Agonist FLIPR assay in HEK293 cells; assay type: cell-based; conditions: FLIPR agonist mode, concentrations up to 10 μM
Description: as §1
For the agonist and antagonist activity study, HEK293 cells stably expressing human GHSR1a receptor were used in a (FLIPR) assay. […] Fluorescence signal was detected with FLIPR at room temperature according to standard settings for 10 minutes before cells were exposed to 10 μl of 5× working concentrations of agonists (compound added by FLIPR). The fluorescence signal was detected in the subsequent 3 minutes (antagonist mode).

[3] = test system: Snord116+/− (Het) mice and wild-type (WT) littermates; test: Food intake and body weight after daily administration in Prader-Willi mouse model; assay type: in vivo
Source text: (§2) The effect of HM04 fumarate salt on food intake behavior and glucose tolerance was investigated in the Snord116+/−(Het) mouse genetic model of Prader-Willi syndrome (Het mouse) compared to wild-type (WT) littermates. Since D2R agonists suppress food intake, the FDA approved D2R agonist cabergoline was used as an experimental control. Phenotypic characteristics of this PWS mouse model include hyperphagia, postnatal growth retardation, high ghrelin, and low growth hormone. Ding F., et al. SnoRNA Snord116 (Pwcr1/MBII-85) deletion causes growth deficiency and hyperphagia in mice. PloS one. 2008; 3(3):e1709. These PWS mice eat more frequently than WT littermates, particularly during the light cycle and are more motivated to work for food (more level presses) (data not shown).
Food intake and body weight were measured daily.

[4] = test system: Snord116+/− (Het) mice and wild-type (WT) littermates; test: Food intake after acute administration in Prader-Willi mouse model; assay type: in vivo; conditions: for cumulative food intake: fasted 16 hours
Source text: as §2
Acute administration: Mice (3-, 7-, and 12-month-old) were fasted for 16 hours and then administered a single intraperitoneal injection of vehicle or vehicle containing HM04, cabergoline, or HM04 and cabergoline according to Table 8, below.
HM04 was dissolved in water for injection and cabergoline was dissolved in DMSO to provide a 5% DMSO/water solution for injection. Mice were then given free access to food, and cumulative food intake was measured at 1, 2, 4, 8, 12, and 24 hours post-dosing. […] Data was analyzed for significance using 2-way ANOVA, Bonferroni post hoc test (Graphpad Prism, Prism 5.0, San Diego, Calif.).

[5] = Dog pharmacokinetic study, HM04 free base vs HM04 fumarate salt (Example 9); assay type: in vivo, male Beagle dogs; conditions: for HM04 plasma concentration: 2 mg/kg oral, mean ± S.D., n=3
[6] = Rat pharmacokinetic study, single oral HM04 fumarate salt 3, 10, 30 mg/kg (Example 10); assay type: in vivo; conditions: male, Sprague Dawley, plasma, 3 mg/kg intravenous, four rats, read-out: mean AUC following intravenous administration
[7] = 6-month-old Het mice, HM04 10 mg/kg i.p. daily at 07.00 hours for 10 days
[8] = 6-month-old WT mice, HM04 10 mg/kg i.p. daily at 07.00 hours for 10 days
[9] = 8-month-old Het mice, HM04 30 mg/kg oral daily at 07.00 hours for 5 days
[10] = 8-month-old Het mice, HM04 30 mg/kg oral daily at 18.00 hours for 5 days
[11] = 8-month-old WT mice, HM04 30 mg/kg oral daily at 07.00 hours for 5 days

T1 sequence (Q92847 whole entry): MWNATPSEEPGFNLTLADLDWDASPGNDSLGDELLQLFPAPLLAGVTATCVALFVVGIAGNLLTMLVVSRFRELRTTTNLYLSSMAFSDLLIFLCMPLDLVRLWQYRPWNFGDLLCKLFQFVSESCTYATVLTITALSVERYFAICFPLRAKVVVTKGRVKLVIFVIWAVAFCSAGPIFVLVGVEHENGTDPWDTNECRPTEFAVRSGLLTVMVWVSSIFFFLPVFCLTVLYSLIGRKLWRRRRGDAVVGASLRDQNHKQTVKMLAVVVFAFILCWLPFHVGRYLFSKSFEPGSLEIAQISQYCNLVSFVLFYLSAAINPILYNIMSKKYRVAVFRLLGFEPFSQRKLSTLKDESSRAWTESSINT

agonist activity (human GHSR1a receptor [2]): No agonist activity was observed
Structure (SMILES): CN1CCC(N(C)C(=O)N[C@H](c2ccc(-c3cnccn3)c(Cl)c2Cl)C(F)(F)F)CC1 [HM04, (R)-3-(1-(2,3-dichloro-4-(pyrazin-2-yl)phenyl)-2,2,2-trifluoroethyl)-1-methyl-1-(1-methylpiperidin-4-yl)urea]
inverse agonist activity (human GHSR1a receptor [1]): did not show a clear significant inverse agonist activity
body weight [3, 7]: no apparent effect
food intake [3, 7]: no apparent effect
body weight [3, 8]: no apparent effect
food intake [3, 8]: no apparent effect
body weight [3, 9]: unaffected
food intake [3, 9]: significant decrease in food intake was observed by day 2, but not on subsequent days
food consumption during the dark cycle [3, 10]: suppression of food consumption was not observed
food intake during the subsequent light cycle (06.00-18.00) [3, 10]: food intake was lower in HM04-treated Het mice, but not WT mice on days 2, 3, 4, and 5 and reached significance on day 5
body weight [3, 11]: No reduction in food intake or body weight
food intake [3, 11]: No reduction in food intake
food consumption during the dark cycle ([3]; 8-month-old WT mice, HM04 30 mg/kg oral daily at 18.00 hours for 5 days): suppression of food consumption was not observed
cumulative food intake ([4]; 3-month-old Het mice, HM04 10 mg/kg single i.p.): significantly suppressed food intake at 12 and 24 hours post-dosing
cumulative food intake ([4]; 3-month-old WT mice, HM04 10 mg/kg single i.p.): failed to inhibit food intake
cumulative food intake ([4]; 7-month-old Het mice, HM04 10 mg/kg single i.p.): did not inhibit food intake
food intake ([4]; 7-month-old Het mice, HM04 30 mg/kg single i.p.): inhibited food intake for up to 8 hours
cumulative food intake ([4]; 7-month-old WT mice, HM04 10 mg/kg single i.p.): did not inhibit food intake
food intake ([4]; 7-month-old WT mice, HM04 30 mg/kg single i.p.): no apparent effect on food intake
food intake ([4]; 12-month-old Het mice, HM04 10 mg/kg single i.p., 1 hour after dosing): suppressed food intake
food intake ([4]; 12-month-old Het mice, HM04 10 mg/kg single i.p., after 1 hour (up to 24 hours)): that level of inhibition was not maintained
food intake ([4]; 12-month-old WT mice, HM04 10 mg/kg i.p.): did not reduce food intake

HM04 plasma concentration ([5]; 1 hour): 227.4 ± 52.2 ng/mL
HM04 plasma concentration ([5]; 4 hours): 152.9 ± 56.9 ng/mL
HM04 plasma concentration ([5]; 8 hours): 70.2 ± 41.0 ng/mL
HM04 plasma concentration ([5]; 24 hours): 13.1 ± 13.2 ng/mL
AUC ([5]; male, Beagle, plasma, 1 mg/kg intravenous, three dogs, read-out: mean AUC following intravenous administration): 1130 ± 364 ng·h/mL
AUC [6]: 1760 ± 196 ng·h/mL
Structure (SMILES): CN1CCC(N(C)C(=O)N[C@H](c2ccc(-c3cnccn3)c(Cl)c2Cl)C(F)(F)F)CC1.O=C(O)/C=C/C(=O)O [HM04 fumarate salt, (R)-3-(1-(2,3-dichloro-4-(pyrazin-2-yl)phenyl)-2,2,2-trifluoroethyl)-1-methyl-1-(1-methylpiperidin-4-yl)urea fumarate salt]
